Data on 31 compounds can be found in US11447445B2, “Diabetes and metabolic syndrome treatment with a novel dual modulator of soluble epoxide hydrolase and peroxisome proliferator-activated receptors” (priority 2015, dated 2022).

T1 sequence (Q07869 239-466): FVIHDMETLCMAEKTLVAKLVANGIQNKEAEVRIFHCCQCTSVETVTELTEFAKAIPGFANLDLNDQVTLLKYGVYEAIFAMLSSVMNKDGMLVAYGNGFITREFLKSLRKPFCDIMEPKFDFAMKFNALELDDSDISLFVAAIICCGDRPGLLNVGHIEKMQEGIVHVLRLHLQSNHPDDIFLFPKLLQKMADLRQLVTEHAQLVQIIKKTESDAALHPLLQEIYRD

One test has as its target T1, PPARα (Homo sapiens, UniProt Q07869).
T1 construct: expressed in transfected cells; host or cells: COS-7
Assay: not given
The test is classed as cell-based.
Conditions: not given
The protocol:
(§1) COS-7 cells (PPAR) were grown in DMEM high glucose, supplemented with 10% fetal calf serum (FCS), 1% sodium pyruvate (SP) and 1% penicillin/streptomycin (PS) at 37° C. and 5% CO2. Used plasmids for PPAR transactivation assay are shown under supporting informations.
(§2) The day before transfection, COS-7 cells were seeded in 96-well plates with a density of 30,000 cells per well. Transient transfection was carried out using Lipofectamine LTX reagent (Invitrogen, Carlsbad, Calif., USA) according to the manufacturer's protocol with pFR-Luc (Stratagene), pRL-SV40 (Promega) and the Ga14-fusion receptor plasmids (pFA-CMV-hPPAR-LBD) of the respective PPAR subtype. 5 h after transfection, medium was changed to DMEM without phenol red and 10% FCS, supplemented with 1% SP, 1% PS and 1% L-glutamine, now additionally containing 0.1% DMSO and the respective test compound or 0.1% DMSO alone as untreated control. Each concentration was tested in triplicate wells and each experiment was repeated independently at least three times. Following overnight incubation with the test compounds, cells were assayed for luciferase activity using Dual-Glo™ Luciferase Assay System (Promega) according to the manufacturer's protocol. Luminescence was measured with an Infinite m200 luminometer (Tecan Deutschland GmbH). Each concentration of the compounds was tested in triplicate wells. Normalization for transfection efficacy and cell growth was done by division of the firefly luciferase data by renilla luciferase data resulting in relative light units. Activation factors were obtained by dividing by DMSO control. […] All compounds were evaluated by comparison of the achieved maximum effect to that of the reference compound (pioglitazone for PPARγ, GW7647 for PPARa, and L165041 for PPARS each with 1 μM). Data are expressed as mean±SE; n≥3.
(§3) The Gal4-fusion receptor plasmids pFA-CMV-PPARa-LBD, pFA-CMV-PPARS-LBD and pFA-CMV-PPARγ-LBD containing the hinge region and ligand binding domain (LBD) for each of the PPAR subtypes, respectively, were constructed by integrating cDNA fragments obtained from PCR amplification of human monocytes into the SmaI/XbaI cleavage site of the pFA-CMV vector (Stratagene, La Jolla, Calif., USA) and have already been published. […] Frame and sequence of the fusion receptors were verified by sequencing. pFR-Luc (Stratagene) was used as reporter plasmid and pRL-SV40 (Promega) for normalization of transfection efficacy and cell growth.
With `CCOC(=O)C(CC)Cc1ccc(C(=O)NCc2ccccc2)cc1` (stereo not shown) [Compound 2b, Ethyl 2-ethyl 3-[4-(N-benzylbenzamide)]propanoate], the “EC50 PPARα” value is reported as “n.t. i.a. i.a. n.t”.

Take `CCOC(=O)C(CC)Cc1ccc(C(=O)NCc2ccc(F)cc2)cc1` (stereo not shown) [Compound 7b, Ethyl 2-ethyl 3-[4-(N-((4-fluoro)benzyl)benzamide)]propanoate]: the “EC50 PPARα” value is reported as “n.t. i.a. i.a. n.t”.

The test is the same for the next values; noted with them: at 10 μM; compared to GW7647 1 μM.
`CCOC(=O)C(CC)Cc1ccc(C(=O)NCc2ccccc2C)cc1` (stereo not shown) [Compound 3b, Ethyl 2-ethyl 3-[4-(N-((2-methyl)benzyl)benzamide)]propanoate]: the “PPARα activation @10 μM” value is listed as 15%.

On to `CCOC(=O)C(CC)Cc1ccc(C(=O)NCc2ccc(C(F)(F)F)cc2)cc1` (stereo not shown) [Compound 8b, Ethyl 2-ethyl 3-[4-(N-((4-trifluoromethyl)benzyl)benzamide)]propanoate], for which the “PPARα activation @10 μM” value is recorded as 22%.

Staying with this test, now noted: compared to GW7647 1 μM.
For `CCOC(=O)C(CC)Cc1ccc(C(=O)NCc2ccc(Oc3ccccc3)cc2)cc1` (stereo not shown) [Compound 12b, Ethyl 2-ethyl 3-[4-(N-((4-phenoxy)benzyl)benzamide)]propanoate], the “Emax-% PPARα (maximum activation in percent)” value is on record as 110%.

Staying with this test, now noted: i.a. = inactive.
With `CCOC(=O)C(CC)Cc1ccc(C(=O)NCc2ccccc2Cl)cc1` (stereo not shown) [Compound 4b, Ethyl 2-ethyl 3-[4-(N-((2-chloro)benzyl)benzamide)]propanoate], the “EC50 PPARα” value is “n.t. i.a. i.a. n.t”.

A further test concerns the target T2, recombinant human sEH (Homo sapiens, UniProt P34913).
T2 sequence (P34913 1-555): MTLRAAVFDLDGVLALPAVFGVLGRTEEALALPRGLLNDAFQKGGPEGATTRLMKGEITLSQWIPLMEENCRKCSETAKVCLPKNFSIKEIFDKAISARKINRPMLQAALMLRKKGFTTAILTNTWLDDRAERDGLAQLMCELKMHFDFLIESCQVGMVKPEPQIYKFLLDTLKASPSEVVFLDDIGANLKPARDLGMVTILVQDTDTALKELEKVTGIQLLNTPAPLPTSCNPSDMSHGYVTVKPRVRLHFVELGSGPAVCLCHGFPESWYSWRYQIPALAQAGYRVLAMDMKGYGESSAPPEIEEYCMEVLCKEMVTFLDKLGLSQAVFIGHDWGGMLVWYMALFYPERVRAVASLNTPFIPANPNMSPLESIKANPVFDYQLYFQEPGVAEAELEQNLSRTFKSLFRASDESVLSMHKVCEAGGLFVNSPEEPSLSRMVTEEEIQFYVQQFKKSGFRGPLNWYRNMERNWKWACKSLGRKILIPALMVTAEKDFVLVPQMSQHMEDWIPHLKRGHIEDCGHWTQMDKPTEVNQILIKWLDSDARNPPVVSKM
Nature of the test: biochemical. The following applies: read-out: IC50 sEH (converted).
Turning to `CC/C(=C\c1ccc(C(=O)NCc2ccccc2)cc1)C(=O)O` [Compound 2d, (E)-4-[N-Benzylbenzamide]-alpha-ethylcinnamic acid], the IC50 is 9300 nM.

Turning to `CCOC(=O)/C(=C/c1ccc(C(=O)NCc2ccccc2C)cc1)CC` [Compound 3a, Ethyl (E)-4-[N-((2-methyl)benzyl)benzamide]-alpha-ethylcinnamate], the IC50 was 760 ± 50 nM.

Take `CC/C(=C\c1ccc(C(=O)NCc2ccccc2C)cc1)C(=O)O` [Compound 3d, (E)-4-[N-((2-Methyl)benzyl)benzamide]-alpha-ethylcinnamic acid]: the IC50 is 10000 nM.

For `CCOC(=O)/C(=C/c1ccc(C(=O)NCc2ccccc2Cl)cc1)CC` [Compound 4a, Ethyl (E)-4-[N-((2-chloro)benzyl)benzamide]-alpha-ethylcinnamate], the concentration for half-maximal inhibition (IC50) is 410 ± 140 nM.

As for `CC/C(=C\c1ccc(C(=O)NCc2ccccc2Cl)cc1)C(=O)O` [Compound 4d, (E)-4-[N-((2-Chloro)benzyl)benzamide]-alpha-ethylcinnamic acid], the IC50 is 2800 nM.

In the case of `CCOC(=O)/C(=C/c1ccc(C(=O)NCc2ccccc2Br)cc1)CC` [Compound 5a, Ethyl (E)-4-[N-((2-bromo)benzyl)benzamide]-alpha-ethylcinnamate], the IC50 was 300 ± 80 nM.

For the compound `CC/C(=C\c1ccc(C(=O)NCc2ccccc2Br)cc1)C(=O)O` [Compound 5d, (E)-4-[N-((2-Bromo)benzyl)benzamide]-alpha-ethylcinnamic acid], the concentration for half-maximal inhibition (IC50) is 2400 nM.

For the compound `CC/C(=C\c1ccc(C(=O)NCc2ccccc2OC(F)(F)F)cc1)C(=O)O` [Compound 6d, (E)-4-[N-((2-Trifluoromethoxy)benzyl)benzamide]-alpha-ethylcinnamic acid], the IC50 is 900 nM.

Regarding `CCOC(=O)/C(=C/c1ccc(C(=O)NCc2ccc(F)cc2)cc1)CC` [Compound 7a, Ethyl (E)-4-[N-((4-fluoro)benzyl)benzamide]-alpha-ethylcinnamate], the IC50 is 62 ± 3 nM.

As for `CC/C(=C\c1ccc(C(=O)NCc2ccc(F)cc2)cc1)C(=O)O` [Compound 7d, (E)-4-[N-((4-Fluoro)benzyl)benzamide]-alpha-ethylcinnamic acid], the IC50 was 6700 nM.

As to `CCOC(=O)/C(=C/c1ccc(C(=O)NCc2ccc(C(F)(F)F)cc2)cc1)CC` [Compound 8a, Ethyl (E)-4-[N-((4-trifluoromethyl)benzyl)benzamide]-alpha-ethylcinnamate], the concentration for half-maximal inhibition (IC50) is 550 ± 60 nM.

`CCOC(=O)/C(=C/c1ccc(C(=O)NCc2ccc(OC(F)(F)F)cc2)cc1)CC` [Compound 9a, Ethyl (E)-4-[N-((4-trifluoromethoxy)benzyl)benzamide]-alpha-ethylcinnamate]: the IC50 is 880 ± 100 nM.

`CC/C(=C\c1ccc(C(=O)NCc2ccc(OC(F)(F)F)cc2)cc1)C(=O)O` [Compound 9d, (E)-4-[N-((4-Trifluoromethoxy)benzyl)benzamide]-alpha-ethylcinnamic acid]: the 50% inhibitory concentration (IC50) is 1600 nM.

On to `CC/C(=C\c1ccc(C(=O)NCc2ccc(OC)cc2)cc1)C(=O)O` [Compound 10d, (E)-4-[N-((4-Methoxy)benzyl)benzamide]-alpha-ethylcinnamic acid], for which the concentration for half-maximal inhibition (IC50) is 13000 nM.

Regarding `CCOC(=O)/C(=C/c1ccc(C(=O)NCc2ccc(Oc3ccccc3)cc2)cc1)CC` [Compound 12a, Ethyl (E)-4-[N-((4-phenoxy)benzyl)benzamide]-alpha-ethylcinnamate], the IC50 was 1400 ± 60 nM.

Consider `CC/C(=C\c1ccc(C(=O)NCc2ccc(Oc3ccccc3)cc2)cc1)C(=O)O` [Compound 12d, (E)-4-[N-((4-Phenoxy)benzyl)benzamide]-alpha-ethylcinnamic acid], for which the IC50 is 800 nM.

On to `CCOC(=O)/C(=C/c1ccc(C(=O)NCc2ccc(F)cc2C(F)(F)F)cc1)CC` [Compound 13a], for which the concentration for half-maximal inhibition (IC50) was 100 ± 10 nM.

`CC/C(=C\c1ccc(C(=O)NCc2ccc(F)cc2C(F)(F)F)cc1)C(=O)O` [Compound 13d, (E)-4-[N-((4-Fluoro(2-trifluoromethyl))benzyl)benzamide]-alpha-ethylcinnamic acid]: the IC50 was 1200 nM.

In the case of `CCOC(=O)/C(=C/c1ccc(C(=O)NCc2ccc(OC)cc2C(F)(F)F)cc1)CC` [Compound 14a], the IC50 is 50 ± 9 nM.

For the compound `CC/C(=C\c1ccc(C(=O)NCc2ccc(OC)cc2C(F)(F)F)cc1)C(=O)O` [Compound 14d], the IC50 was 400 nM.

With `CCOC(=O)/C(=C/c1cccc(C(=O)NCc2ccccc2C(F)(F)F)c1)CC` [Compound 15a, Ethyl (E)-3-[N-((2-trifluoromethyl)benzyl)benzamide]-alpha-ethylcinnamate], the IC50 is 40 ± 6 nM.

Regarding `CC/C(=C\c1cccc(C(=O)NCc2ccccc2C(F)(F)F)c1)C(=O)O` [Compound 15d, (E)-3-[N-((2-Trifluoromethyl)benzyl)benzamide]-alpha-ethylcinnamic acid], the IC50 was 400 ± 100 nM.

For a further test, the target named is T3, PPARδ (Homo sapiens, UniProt Q03181).
T3 construct: expressed in transfected cells; host or cells: COS-7
T3 sequence (Q03181 211-439): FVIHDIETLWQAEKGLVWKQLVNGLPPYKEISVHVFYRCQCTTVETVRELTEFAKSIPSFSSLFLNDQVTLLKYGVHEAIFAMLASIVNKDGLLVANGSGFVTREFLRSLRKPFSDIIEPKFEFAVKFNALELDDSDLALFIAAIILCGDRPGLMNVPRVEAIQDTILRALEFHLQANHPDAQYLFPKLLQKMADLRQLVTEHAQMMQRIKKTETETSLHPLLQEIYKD
The experiment in a line: PPAR transactivation assay in COS-7 cells (Gal4-hPPAR-LBD, luciferase). The test is classed as cell-based.
Conditions: not given
On the procedure:
as §1, §2, §3
As for `CCOC(=O)C(CC)Cc1ccc(C(=O)NCc2ccccc2)cc1` (stereo not shown) [Compound 2b, Ethyl 2-ethyl 3-[4-(N-benzylbenzamide)]propanoate], the “EC50 PPARδ” value was “n.t. i.a. i.a. n.t”.

As to `CCOC(=O)C(CC)Cc1ccc(C(=O)NCc2ccc(F)cc2)cc1` (stereo not shown) [Compound 7b, Ethyl 2-ethyl 3-[4-(N-((4-fluoro)benzyl)benzamide)]propanoate], the “EC50 PPARδ” value is on record as “n.t. i.a. i.a. n.t”.

The same test, now with this note: i.a. = inactive.
As to `CCOC(=O)C(CC)Cc1ccc(C(=O)NCc2ccccc2C)cc1` (stereo not shown) [Compound 3b, Ethyl 2-ethyl 3-[4-(N-((2-methyl)benzyl)benzamide)]propanoate], the “EC50 PPARδ” value was “n.t. i.a. i.a. n.t”.

Regarding `CCOC(=O)C(CC)Cc1ccc(C(=O)NCc2ccccc2Cl)cc1` (stereo not shown) [Compound 4b, Ethyl 2-ethyl 3-[4-(N-((2-chloro)benzyl)benzamide)]propanoate], the “EC50 PPARδ” value is “n.t. i.a. i.a. n.t”.

In the case of `CCOC(=O)C(CC)Cc1ccc(C(=O)NCc2ccc(C(F)(F)F)cc2)cc1` (stereo not shown) [Compound 8b, Ethyl 2-ethyl 3-[4-(N-((4-trifluoromethyl)benzyl)benzamide)]propanoate], the “EC50 PPARδ” value is given as “n.t. i.a. i.a. n.t”.

With `CCC(Cc1ccc(C(=O)NCc2ccc(C(F)(F)F)cc2)cc1)C(=O)O` (stereo not shown) [Compound 8c, 2-Ethyl 3-[4-(N-((4-trifluoromethyl)benzyl)benzamide)]propionic acid], the “EC50 PPARδ” value is recorded as “n.t. i.a. i.a. n.t”.

On to `CCOC(=O)C(CC)Cc1ccc(C(=O)NCc2ccc(OC(F)(F)F)cc2)cc1` (stereo not shown) [Compound 9b, Ethyl 2-ethyl 3-[4-(N-((4-trifluoromethoxy)benzyl)benzamide)]propanoate], for which the “EC50 PPARδ” value is recorded as “n.t. i.a. i.a. n.t”.

Turning to `CCC(Cc1ccc(C(=O)NCc2ccc(OC(F)(F)F)cc2)cc1)C(=O)O` (stereo not shown) [Compound 9c, 2-Ethyl 3-[4-(N-((4-trifluoromethoxy)benzyl)benzamide)]propionic acid], the “EC50 PPARδ” value is given as “n.t. i.a. i.a. n.t”.

For the compound `CCOC(=O)C(CC)Cc1ccc(C(=O)NCc2ccc(Oc3ccccc3)cc2)cc1` (stereo not shown) [Compound 12b, Ethyl 2-ethyl 3-[4-(N-((4-phenoxy)benzyl)benzamide)]propanoate], the “EC50 PPARδ” value is “i.a”.

The term IC50 denotes the midpoint of a concentration-inhibition curve.
